{
  "source": "patent US20190075797A1",
  "about": "“Safened Herbicidal compositions containing halauxifen or 4-amino-3-chloro-6-(4-chloro-2-fluoro-3-methoxyphenyl)-5-fluoropyridine-2-carboxylic acid and methods of use thereof in centipedegrass” (Dow AgroSciences LLC, priority 2017, published 2019)",
  "test_system": "centipedegrass",
  "conditions": "for centipedegrass injury: dicamba alone, 0 to 10 scale; for Observed Injury: 0-10 scale, 0=no injury, 10=death",
  "note": "Structures can show the parent of a compound that is named as a salt. Where two headings read alike, the source gives them in different places.",
  "description": "A trial was initiated Apr. […] Research was conducted as a randomized complete block design (4 reps), with plot size equal to 6 square meters (2 meter width and 3 meter length). This provided a roughly 1.5 foot buffer between experimental units for reference. Herbicide treatments were applied within a water carrier volume of 40 gallons/acre. A two inch rainfall occurred 48 hours prior to initiation (April 17). Time to next rainfall: roughly 1 inch fell during the late night hours of the 21st and early morning of 22nd. Centipedegrass was approximately 90% green cover at time of treatment-almost fully transitioned from winter dormancy. […] Turf injury (0-10 scale, 0=no injury, 10=death), color (1-9 scale, 1=brown, 9=dark green), and density (0-100%) were evaluated 5, 8, 13, 23, 29 and 44 days after treatment (DAT). Data were subject to analysis of variance (alpha=0.05). Means separations were estimated using Student Knewman Keul's test (alpha=0.05) within ARM v.",
  "data": [
    {"molecule": "COc1c(Cl)ccc(Cl)c1C(=O)O", "note": "[Dicamba MIBPA, N,N-bis(3-aminopropyl)methylamine salt (MIBPA) of dicamba]", "values": [
      {"measurement": "centipedegrass injury", "setting": "23 DAT, regardless of rate", "result": "< 0.8"},
      {"measurement": "centipedegrass injury", "setting": "29 DAT, across all rates", "result": 0},
      {"measurement": "Observed Injury", "setting": "Dicamba MIBPA 0.12 lb ae/a alone, 5 DAA", "result": 0.0},
      {"measurement": "Observed Injury", "setting": "Dicamba MIBPA 0.12 lb ae/a alone, 8 DAA", "result": 0.0},
      {"measurement": "Observed Injury", "setting": "Dicamba MIBPA 0.12 lb ae/a alone, 13 DAA", "result": 0.0},
      {"measurement": "Observed Injury", "setting": "Dicamba MIBPA 0.12 lb ae/a alone, 23 DAA", "result": 0.38},
      {"measurement": "Observed Injury", "setting": "Dicamba MIBPA 0.12 lb ae/a alone, 29 DAA", "result": 0.00},
      {"measurement": "Observed Injury", "setting": "Dicamba MIBPA 0.12 lb ae/a alone, 44 DAA", "result": 0.25},
      {"measurement": "Observed Injury", "setting": "Dicamba MIBPA 0.24 lb ae/a alone, 5 DAA", "result": 0.0},
      {"measurement": "Observed Injury", "setting": "Dicamba MIBPA 0.24 lb ae/a alone, 8 DAA", "result": 0.0},
      {"measurement": "Observed Injury", "setting": "Dicamba MIBPA 0.24 lb ae/a alone, 13 DAA", "result": 0.0},
      {"measurement": "Observed Injury", "setting": "Dicamba MIBPA 0.24 lb ae/a alone, 23 DAA", "result": 0.38},
      {"measurement": "Observed Injury", "setting": "Dicamba MIBPA 0.24 lb ae/a alone, 29 DAA", "result": 0.00},
      {"measurement": "Observed Injury", "setting": "Dicamba MIBPA 0.24 lb ae/a alone, 44 DAA", "result": 0.38},
      {"measurement": "Observed Injury", "setting": "Dicamba MIBPA 0.36 lb ae/a alone, 5 DAA", "result": 0.0},
      {"measurement": "Observed Injury", "setting": "Dicamba MIBPA 0.36 lb ae/a alone, 8 DAA", "result": 0.0},
      {"measurement": "Observed Injury", "setting": "Dicamba MIBPA 0.36 lb ae/a alone, 13 DAA", "result": 0.0},
      {"measurement": "Observed Injury", "setting": "Dicamba MIBPA 0.36 lb ae/a alone, 23 DAA", "result": 0.75},
      {"measurement": "Observed Injury", "setting": "Dicamba MIBPA 0.36 lb ae/a alone, 29 DAA", "result": 0.00},
      {"measurement": "Observed Injury", "setting": "Dicamba MIBPA 0.36 lb ae/a alone, 44 DAA", "result": 0.50}
    ]}
  ]
}
